Data reported in BindingDB's records for PubMed 11454940 (Sanofi Synthelabo, 2001).
“And” between values parts separate entries of the source, which are not always exact repeats. Equal entries are not always repeated.

Experiments:
[1] = biological target: Gamma-aminobutyric acid receptor subunit alpha-5 (Rattus norvegicus, UniProt P19969)
[2] = biological target: Gamma-aminobutyric acid receptor subunit alpha-2 (Rattus norvegicus, UniProt P23576)
[3] = biological target: Gamma-aminobutyric acid receptor subunit alpha-1 (Rattus norvegicus, UniProt P62813)
Chain of Gamma-aminobutyric acid receptor subunit alpha-1 (P62813 whole entry): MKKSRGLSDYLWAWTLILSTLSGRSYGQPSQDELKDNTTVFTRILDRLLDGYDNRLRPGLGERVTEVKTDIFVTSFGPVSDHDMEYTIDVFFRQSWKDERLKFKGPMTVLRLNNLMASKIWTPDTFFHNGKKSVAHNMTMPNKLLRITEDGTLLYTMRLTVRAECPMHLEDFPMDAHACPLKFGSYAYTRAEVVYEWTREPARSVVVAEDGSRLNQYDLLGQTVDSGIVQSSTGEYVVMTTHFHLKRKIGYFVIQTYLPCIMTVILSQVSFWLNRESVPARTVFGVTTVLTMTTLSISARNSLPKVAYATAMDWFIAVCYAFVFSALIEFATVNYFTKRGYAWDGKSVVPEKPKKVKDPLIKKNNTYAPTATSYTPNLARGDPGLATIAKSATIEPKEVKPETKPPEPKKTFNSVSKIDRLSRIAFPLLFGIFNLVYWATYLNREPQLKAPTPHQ

[4] = biological target: Gamma-aminobutyric acid receptor subunit alpha-3 (Rattus norvegicus, UniProt P20236)
Chain of Gamma-aminobutyric acid receptor subunit alpha-3 (P20236 whole entry I342M/K409L): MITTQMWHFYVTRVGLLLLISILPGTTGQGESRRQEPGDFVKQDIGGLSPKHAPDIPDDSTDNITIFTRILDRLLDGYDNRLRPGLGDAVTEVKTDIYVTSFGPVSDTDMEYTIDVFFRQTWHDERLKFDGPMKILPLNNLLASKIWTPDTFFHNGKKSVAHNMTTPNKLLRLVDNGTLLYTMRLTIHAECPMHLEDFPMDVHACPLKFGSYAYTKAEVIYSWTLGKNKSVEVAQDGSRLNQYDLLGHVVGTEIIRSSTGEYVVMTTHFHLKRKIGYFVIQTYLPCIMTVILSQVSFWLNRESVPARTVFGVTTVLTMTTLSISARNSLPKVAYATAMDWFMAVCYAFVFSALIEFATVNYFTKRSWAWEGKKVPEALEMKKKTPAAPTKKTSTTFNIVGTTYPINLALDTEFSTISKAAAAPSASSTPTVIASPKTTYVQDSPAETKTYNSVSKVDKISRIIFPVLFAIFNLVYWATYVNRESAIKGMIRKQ

Chain of Gamma-aminobutyric acid receptor subunit alpha-2 (P23576 whole entry): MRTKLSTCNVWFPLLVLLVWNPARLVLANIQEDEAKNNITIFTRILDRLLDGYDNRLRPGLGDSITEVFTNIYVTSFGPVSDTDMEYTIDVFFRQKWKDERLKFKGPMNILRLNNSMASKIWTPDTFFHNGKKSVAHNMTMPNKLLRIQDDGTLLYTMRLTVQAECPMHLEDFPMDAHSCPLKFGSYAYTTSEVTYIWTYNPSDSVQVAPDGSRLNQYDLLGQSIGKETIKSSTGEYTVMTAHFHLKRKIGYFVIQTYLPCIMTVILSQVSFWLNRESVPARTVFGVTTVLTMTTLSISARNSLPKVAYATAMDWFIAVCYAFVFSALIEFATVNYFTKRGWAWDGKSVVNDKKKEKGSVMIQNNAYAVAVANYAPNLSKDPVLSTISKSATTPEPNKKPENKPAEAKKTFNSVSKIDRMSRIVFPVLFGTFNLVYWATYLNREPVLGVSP
Chain of Gamma-aminobutyric acid receptor subunit alpha-5 (P19969 whole entry): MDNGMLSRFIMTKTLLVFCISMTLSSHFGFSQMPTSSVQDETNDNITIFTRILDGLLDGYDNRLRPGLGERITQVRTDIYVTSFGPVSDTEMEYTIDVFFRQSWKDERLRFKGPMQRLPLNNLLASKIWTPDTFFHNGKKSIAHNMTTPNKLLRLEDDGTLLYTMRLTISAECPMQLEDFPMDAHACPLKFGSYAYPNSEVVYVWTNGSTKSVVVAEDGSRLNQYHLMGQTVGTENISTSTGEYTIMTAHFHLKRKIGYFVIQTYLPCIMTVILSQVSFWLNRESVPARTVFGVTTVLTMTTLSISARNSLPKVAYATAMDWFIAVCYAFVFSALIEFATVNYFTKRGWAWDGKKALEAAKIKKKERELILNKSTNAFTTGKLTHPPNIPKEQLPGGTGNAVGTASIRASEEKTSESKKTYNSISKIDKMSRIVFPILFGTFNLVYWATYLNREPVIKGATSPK

Cn1c2ccc(F)cc2c2c(C(=O)N3CCCC3)cn(-c3ccccc3)c(=O)c21 [6-FLUOR-2-FENYL-9-METHYL-4-(PYRROLIDINE-1-CARBONYL)-9H-PYRIDO[3,4B]INDOOL-1(2H)-ON]
Ki [1]: 117 nM and 215 nM
Ki [2]: 12.3 nM and 73 nM
Ki [3]: 6.8 nM and 17 nM
Ki [4]: 80.3 nM
